From patent publication US20200392192A1 (priority 2018, published 2020)
Read-outs that look alike come from different tables or passages of the source.

Key:
[1] = in vitro; conditions: human
[2] = test system: CEM-SS
[3] = test system: CEM-SS/HIVRF; format: cell-based, HIV1
[4] = in vitro; conditions: human; remark: listed apart in the source
[5] = test system: HUH7-ZikaPRVABC59; assay: microbe, parasite or virus in culture; format: cell-based; conditions: Zika virus
[6] = test system: HCV Replicon; assay: microbe, parasite or virus in culture; format: cell-based; conditions: Hepatitis C virus
[7] = in vitro
[8] = test system: E. coli
[9] = test system: protein synthesis; conditions: read-out: IC50 protein synthesis inhibition; cited from earlier work

With Nc1ccn([C@@H]2CS[C@H](CO)O2)c(=O)n1 [3TC, Lamivudine] as the compound, how does the CC50 [1] read?
The CC50 was greater than 10000 nM.

Which results are given for Cc1cn([C@H]2C[C@H](N=[N+]=[N-])[C@@H](CO)O2)c(=O)[nH]c1=O [AZT]?
CC50 [2]: > 1000 nM; EC50 [3]: 0.8 nM

Which CC50 [4] does the source give for CC(C)OC(=O)[C@H](C)N[P@](=O)(OC[C@H]1O[C@@H](n2ccc(=O)[nH]c2=O)[C@](C)(F)[C@@H]1O)Oc1ccccc1 [Sofosbuvir] here?
Its CC50 is greater than 10000 nM.

And the EC50 [5]?
The EC50 was 2090 nM.

What about the EC50 [6] of the same compound?
Its EC50 is 50 nM.

And the CC50 [7]?
The CC50 was greater than 1000 nM.

For PAP1, which “increased toxicity to E. coli compared to PAPS1” value [8] is on record?
The value was greater than 10 fold.

What about the IC50 [9] of the same compound?
Its IC50 is 0.29 nM.
